One may read the EC50 as the midpoint of the concentration-response curve. Read a low EC50 as higher potency in that assay.

The target in one assay is human CYP11B1 (Homo sapiens (Human), UniProt P15538). As to the kind of experiment: G-402 cellular enzyme assay, human CYP11B1 (cortisol release). The format is cell-based. To be noted: G-402 cells, 1 μM Deoxycortisol. An excerpt:
(§1) Herein we identified the use of the G-402 cell line as a host cell to ectopically express (transiently or stably) enzymes of the CYP11 family. Specifically we developed stable G-402 cells expressing ectopically human CYP11B1, human CYP11B2, human CYP11A1, cynmolgus CYP11B1 or cynomolgus CYP11B2 enzyme activity. Importantly the identified cell line G-402 expresses co-factors (adrenodoxin and adrenodoxin reductase) important for the activity of the CYP11 family and no relevant enzyme activity of the CYP11 family (in comparison to H295R cells) was detected in these cells. Therefore the G-402 cell line is uniquely suited as a host cell for the ectopic expression of enzymes from the CYP11 family. G-402 cells can be obtained from ATCC (CRL-1440) and were originally derived from a renal leiomyoblastoma.
(§2) The expression plasmids contains the ORF for either human/cyno CYP11B1 or CYP11B2 under the control of a suitable promoter (CMV-promoter) and a suitable resistance marker (neomycin). Using standard techniques the expression plasmid is transfected into G-402 cells and these cells are then selected for expressing the given resistance markers. Individual cell-clones are then selected and assessed for displaying the desired enzymatic activity using 11-Deoxycorticosterone (Cyp11B2) or 11-Deoxycortisol (Cyp11B1) as a substrate.
(§3) G-402 cells expressing CYP11 constructs were established as described above and maintained in McCoy's 5a Medium Modified, ATCC Catalog No. 30-2007 containing 10% FCS and 400 μg/ml G418 (Geneticin) at 37° C. under an atmosphere of 5% CO2/95% air. Cellular enzyme assays were performed in DMEM/F12 medium containing 2.5% charcoal treated FCS and appropriate concentration of substrate (0.3-10 uM 11-Deoxycorticosterone, 11-Deoxycortisol or Corticosterone). For assaying enzymatic activity, cells were plated onto 96 well plates and incubated for 16 h. An aliquot of the supernatant is then transferred and analyzed for the concentration of the expected product (Aldosterone for CYP11B2; Cortisol for CYP11B1). The concentrations of these steroids can be determined using HTRF assays from CisBio analyzing either Aldosterone or Cortisol.
(§4) Inhibition of the release of produced steroids can be used as a measure of the respective enzyme inhibition by test compounds added during the cellular enzyme assay. The dose dependent inhibition of enzymatic activity by a compound is calculated by means of plotting added inhibitor concentrations (x-axes) vs. measured steroid/product level (y-axes). The inhibition is then calculated by fitting the following 4-parameter sigmoidal function (Morgan-Mercer-Flodin (MMF) model) to the raw data points using the least squares method:
(§5) [formula] wherein, A is the maximum y value, B is the EC50 factor determined using XLFit, C is the minimum y value and D is the slope value.
(§6) EC50 values for compounds claimed herein were tested with the G402-based assay system described. Cyp11B2 enzyme activity was tested in presence of 1 μM Deoxycorticosterone and variable amounts of inhibitors; Cyp11B1 enzyme activity was tested in presence of 1 μM Deoxycortisol and variable amounts of inhibitors.

For the next assay, the target named is human CYP11B2 (Homo sapiens (Human), UniProt P19099). As to the kind of experiment: G-402 cellular enzyme assay, human CYP11B2 (aldosterone release). The conditions noted are these: G-402 cells, 1 μM Deoxycorticosterone. The format is cell-based.
Source text: as §1, §2, §3, §4, §5, §6

Chain of human CYP11B2 (P19099 25-503): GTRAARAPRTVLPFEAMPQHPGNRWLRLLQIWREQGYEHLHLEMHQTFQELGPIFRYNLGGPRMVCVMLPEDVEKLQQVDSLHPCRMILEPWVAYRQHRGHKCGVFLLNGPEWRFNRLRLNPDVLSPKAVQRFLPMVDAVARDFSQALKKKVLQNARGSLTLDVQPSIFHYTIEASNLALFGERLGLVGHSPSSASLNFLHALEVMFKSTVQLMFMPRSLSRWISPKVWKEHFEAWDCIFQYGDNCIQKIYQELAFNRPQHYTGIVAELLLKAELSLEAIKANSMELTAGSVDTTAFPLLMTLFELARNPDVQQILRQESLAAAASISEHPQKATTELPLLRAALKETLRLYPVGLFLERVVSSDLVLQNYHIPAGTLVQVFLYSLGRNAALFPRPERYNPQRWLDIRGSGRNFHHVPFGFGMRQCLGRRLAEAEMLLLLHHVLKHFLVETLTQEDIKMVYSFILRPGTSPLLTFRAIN
Chain of human CYP11B1 (P15538 25-503): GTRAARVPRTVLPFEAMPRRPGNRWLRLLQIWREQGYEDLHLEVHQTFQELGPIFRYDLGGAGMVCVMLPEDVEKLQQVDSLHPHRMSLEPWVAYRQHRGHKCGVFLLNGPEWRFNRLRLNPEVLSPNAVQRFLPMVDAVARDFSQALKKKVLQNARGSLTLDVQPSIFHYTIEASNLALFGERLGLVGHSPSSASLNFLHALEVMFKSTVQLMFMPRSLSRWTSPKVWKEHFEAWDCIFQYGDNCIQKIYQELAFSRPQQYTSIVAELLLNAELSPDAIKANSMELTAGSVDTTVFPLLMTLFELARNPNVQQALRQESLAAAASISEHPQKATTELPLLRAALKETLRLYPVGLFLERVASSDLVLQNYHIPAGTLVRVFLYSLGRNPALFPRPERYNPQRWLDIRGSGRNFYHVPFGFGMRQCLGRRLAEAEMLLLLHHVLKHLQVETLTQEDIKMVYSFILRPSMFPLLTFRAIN

As to `CCOC(=O)CC1CCc2c(-c3ccc(C(F)(F)F)c(F)c3)cncc21` (racemic) [Example 1, (rac)-Ethyl 2-[4-[3-fluoro-4-(trifluoromethyl)phenyl]-6,7-dihydro-5H-cyclopenta[c]pyridin-7-yl]acetate], the figures for the EC50 on human CYP11B1 and at human CYP11B2 were 84 nM and 9 nM, respectively.

Turning to `CNC(=O)CC1CCc2c(-c3ccc(C(F)(F)F)c(F)c3)cncc21` (racemic) [Example 2, (rac)-2-[4-[3-Fluoro-4-(trifluoromethyl)phenyl]-6,7-dihydro-5H-cyclopenta[c]pyridin-7-yl]-N-methyl-acetamide], the EC50 came to 199 nM at human CYP11B1 and 17 nM at human CYP11B2.

As for `CCNC(=O)CC1CCc2c(-c3ccc(C(F)(F)F)c(F)c3)cncc21` (racemic) [Example 3, (rac)-2-[4-[3-Fluoro-4-(trifluoromethyl)phenyl]-6,7-dihydro-5H-cyclopenta[c]pyridin-7-yl]-N-ethyl-acetamide], the EC50 stood at 69 nM on human CYP11B1 and 13 nM on human CYP11B2.

Take `CCCNC(=O)CC1CCc2c(-c3ccc(C(F)(F)F)c(F)c3)cncc21` (racemic) [Example 4, (rac)-2-[4-[3-Fluoro-4-(trifluoromethyl)phenyl]-6,7-dihydro-5H-cyclopenta[c]pyridin-7-yl]-N-propyl-acetamide]: the EC50 came out at 112 nM at human CYP11B1 and 21 nM at human CYP11B2.

Regarding `O=C(CC1CCc2c(-c3ccc(C(F)(F)F)c(F)c3)cncc21)NC1CC1` (racemic) [Example 5, (rac)-N-Cyclopropyl-2-[4-[3-fluoro-4-(trifluoromethyl)phenyl]-6,7-dihydro-5H-cyclopenta[c]pyridin-7-yl]acetamide], the 50% effective concentration (EC50) was determined as 217 nM at human CYP11B1 and 13 nM on human CYP11B2.

Turning to `O=C(CC1CCc2c(-c3ccc(C(F)(F)F)c(F)c3)cncc21)NCC1CC1` (racemic) [Example 6, (rac)-N-(Cyclopropylmethyl)-2-[4-[3-fluoro-4-(trifluoromethyl)phenyl]-6,7-dihydro-5H-cyclopenta[c]pyridin-7-yl]acetamide], the values for the EC50 on human CYP11B1 and at human CYP11B2 were 331 nM and 24 nM, respectively.

Turning to `COCCNC(=O)CC1CCc2c(-c3ccc(C(F)(F)F)c(F)c3)cncc21` (racemic) [Example 7, (rac)-2-[4-[3-Fluoro-4-(trifluoromethyl)phenyl]-6,7-dihydro-5H-cyclopenta[c]pyridin-7-yl]-N-(2-methoxyethyl)acetamide], the values for the EC50 at human CYP11B1 and on human CYP11B2 were 582 nM and 32 nM, respectively.

For the molecule `O=C(CC1CCc2c(-c3ccc(C(F)(F)F)c(F)c3)cncc21)N1CCCCC1` (racemic) [Example 8, (rac)-2-[4-[3-Fluoro-4-(trifluoromethyl)phenyl]-6,7-dihydro-5H-cyclopenta[c]pyridin-7-yl]-1-(1-piperidyl)ethanone], the EC50 on human CYP11B1 is 10 nM; on human CYP11B2, 2 nM.

For the molecule `O=C(CC1CCc2c(-c3ccc(C(F)(F)F)c(F)c3)cncc21)N1CCOCC1` (racemic) [Example 9, (rac)-2-[4-[3-Fluoro-4-(trifluoromethyl)phenyl]-6,7-dihydro-5H-cyclopenta[c]pyridin-7-yl]-1-morpholino-ethanone], the EC50 is 152 nM at human CYP11B1 and 20 nM at human CYP11B2.

As to `O=C(CC1CCc2c(-c3ccc(C(F)(F)F)c(F)c3)cncc21)Nc1ccon1` (racemic) [Example 10, (rac)-2-[4-[3-Fluoro-4-(trifluoromethyl)phenyl]-6,7-dihydro-5H-cyclopenta[c]pyridin-7-yl]-N-isoxazol-3-yl-acetamide], the EC50 was 180 nM at human CYP11B1 and 17 nM on human CYP11B2.

Regarding `O=C(CC1CCc2c(-c3ccc(C(F)(F)F)c(F)c3)cncc21)Nc1cc[nH]n1` (racemic) [Example 11, (rac)-2-[4-[3-Fluoro-4-(trifluoromethyl)phenyl]-6,7-dihydro-5H-cyclopenta[c]pyridin-7-yl]-N-(1H-pyrazol-3-yl)acetamide], the EC50 was found to be 30 nM on human CYP11B1 and 8 nM on human CYP11B2.

Turning to `CN(C)C(=O)CC1CCc2c(-c3ccc(C(F)(F)F)cc3F)cncc21` (racemic) [Example 13, (rac)-2-[4-[2-Fluoro-4-(trifluoromethyl)phenyl]-6,7-dihydro-5H-cyclopenta[c]pyridin-7-yl]-N,N-dimethyl-acetamide], the values for the EC50 at human CYP11B1 and on human CYP11B2 were 9370 nM and 67 nM, respectively.

Turning to `CCN(C)C(=O)CC1CCc2c(-c3ccc(C(F)(F)F)cc3F)cncc21` (racemic) [Example 14, (rac)-N-Ethyl-2-[4-[2-fluoro-4-(trifluoromethyl)phenyl]-6,7-dihydro-5H-cyclopenta[c]pyridin-7-yl]-N-methyl-acetamide], the EC50 at human CYP11B1 is 2120 nM; on human CYP11B2 it was 44 nM.

As for `CC(C)N(C)C(=O)CC1CCc2c(-c3ccc(C(F)(F)F)cc3F)cncc21` (racemic) [Example 15, (rac)-2-[4-[2-Fluoro-4-(trifluoromethyl)phenyl]-6,7-dihydro-5H-cyclopenta[c]pyridin-7-yl]-N-isopropyl-N-methyl-acetamide], the EC50 on human CYP11B1 is 1310 nM; on human CYP11B2, 18 nM.

Regarding `CN(C(=O)CC1CCc2c(-c3ccc(C(F)(F)F)cc3F)cncc21)C1CC1` (racemic) [Example 16, (rac)-N-Cyclopropyl-2-[4-[2-fluoro-4-(trifluoromethyl)phenyl]-6,7-dihydro-5H-cyclopenta[c]pyridin-7-yl]-N-methyl-acetamide], the EC50 at human CYP11B1 was found to be 211 nM; at human CYP11B2 it was 6 nM.

On to `CCN(C(=O)CC1CCc2c(-c3ccc(C(F)(F)F)cc3F)cncc21)C1CC1` (racemic) [Example 17, (rac)-N-Cyclopropyl-N-ethyl-2-[4-[2-fluoro-4-(trifluoromethyl)phenyl]-6,7-dihydro-5H-cyclopenta[c]pyridin-7-yl]acetamide], for which the EC50 was determined as 745 nM at human CYP11B1 and 29 nM on human CYP11B2.

For `O=C(CC1CCc2c(-c3ccc(C(F)(F)F)cc3F)cncc21)N1CCC1` (racemic) [Example 18, (rac)-1-(Azetidin-1-yl)-2-[4-[2-fluoro-4-(trifluoromethyl)phenyl]-6,7-dihydro-5H-cyclopenta[c]pyridin-7-yl]ethanone], the EC50 on human CYP11B1 turned out to be 2680 nM; at human CYP11B2, 48 nM.

On to `O=C(CC1CCc2c(-c3ccc(C(F)(F)F)cc3F)cncc21)N1CC(CO)C1` (racemic) [Example 19, (rac)-2-[4-[2-Fluoro-4-(trifluoromethyl)phenyl]-6,7-dihydro-5H-cyclopenta[c]pyridin-7-yl]-1-[3-(hydroxymethyl)azetidin-1-yl]ethanone], for which the values for the EC50 on human CYP11B1 and at human CYP11B2 were 1160 nM and 45 nM, respectively.

In the case of `COC1CN(C(=O)CC2CCc3c(-c4ccc(C(F)(F)F)cc4F)cncc32)C1` (racemic) [Example 20, (rac)-2-[4-[2-Fluoro-4-(trifluoromethyl)phenyl]-6,7-dihydro-5H-cyclopenta[c]pyridin-7-yl]-1-(3-methoxyazetidin-1-yl)ethanone], the EC50 on human CYP11B1 stood at 1490 nM; on human CYP11B2, 53 nM.

As to `O=C(CC1CCc2c(-c3ccc(C(F)(F)F)cc3F)cncc21)N1CCCC1` (racemic) [Example 21, (rac)-2-[4-[2-Fluoro-4-(trifluoromethyl)phenyl]-6,7-dihydro-5H-cyclopenta[c]pyridin-7-yl]-1-pyrrolidin-1-yl-ethanone], the EC50 on human CYP11B1 worked out at 507 nM; at human CYP11B2 it was 12 nM.

On to `C[C@H]1CCCN1C(=O)CC1CCc2c(-c3ccc(C(F)(F)F)cc3F)cncc21` (mixture of isomers) [Example 22, (rac)-2-[4-[2-Fluoro-4-(trifluoromethyl)phenyl]-6,7-dihydro-5H-cyclopenta[c]pyridin-7-yl]-1-[(2S)-2-methylpyrrolidin-1-yl]ethanone], for which the EC50 at human CYP11B1 was 278 nM; on human CYP11B2 it was 6 nM.

As to `CCOC(=O)CC1CCCc2c(-c3ccc(C(F)(F)F)cc3F)cncc21` (racemic) [Example 23, (rac)-Ethyl 2-[4-[2-fluoro-4-(trifluoromethyl)phenyl]-5,6,7,8-tetrahydroisoquinolin-8-yl]acetate], the EC50 on human CYP11B1 is 1890 nM; at human CYP11B2, 27 nM.

The values above are taken from US9636339B2, “Phenyl-dihydropyridine derivatives as aldosterone synthase inhibitors” (Hoffmann-La Roche Inc., priority 2013, dated 2017).
